Assay results: patent US10072005B2, “4-azaindole derivatives” (EISAI R&D MANAGEMENT CO., LTD., priority 2013, dated 2018)

Target: mAChR M1 (Homo sapiens, UniProt P11229)
Experiment: In vitro cellular calcium flux assay, positive allosteric modulation of mAChR M1
Format: cell-based
Conditions: for pEC50 for positive allosteric modulation: BHK cells expressing mAChR M1, EC20 carbachol, Examples 76-80 and 82-89 slightly modified procedure
Procedure: Baby hamster kidney cells stably expressing human or rat mAChR M1 to M5 were utilised for primary and selectivity profiling activities. mAChR M2 and M4 cell lines also stably expressed the chimeric Gαqi5 G-protein.
Human mAChR M1, M3, M5 and rat M1 cells were grown in low glucose Dulbecco's Modified Eagle's Medium (DMEM) medium plus heat inactivated 10% fetal bovine serum (HI FBS) and 500 μg/ml hygromycin B^1. Human mAChR M2 and M4 cells were maintained as above with^2 the addition of 500 μg/ml G418 to the media. Cells were maintained in culture at 37° C./5% CO2 and passaged twice weekly by treatment with 0.05% Trypsin/EDTA detachment solution, centrifugation (200 g, 5 min) and re-suspension in fresh media. Following cell expansion, cells were cryopreserved at −80° C. by treatment with 0.05% Trypsin/EDTA detachment solution, centrifugation (200 g, 5 min) and re-suspension of the pellet in freezing media (90% HI FBS/10% DMSO^3) at 15E6 cells/ml^4.
Prior to assaying, cells were prepared by thawing at 37° C. in a water bath, centrifugation (200 g, 5 min) and re-suspension of the pellet in fresh media. 15000 cells per well were seeded in black, clear bottomed 384-well Greiner Bio-One plates in plating medium (DMEM/10% HI FBS) and incubated overnight at 37 C/5% CO2.
On the day of the assay, media was removed from each well and replaced with 50 μl^5 assay buffer (HBSS with 20 mM HEPES and 2.5 mM Probenecid) containing the calcium indicator, Calcium 4 (Molecular Devices). Cells were then incubated at 37° C./5% CO2 for 30 min and at room temperature.
Compound preparation was carried out by generation of 11-point, 1 in 3 serial dilution concentration response curves in 100% DMSO. Compound was then diluted 1 in 65^6 with assay buffer (HBSS with 20 mM HEPES and 2.5 mM Probenecid) prior to the addition of 10 ul^7 to the cells using a Tetra fluorometric imaging plate reader (Molecular Devices)^8. Compound driven increases in intracellular calcium flux was measured as an increase in fluorescence (494Ex, 516Em)^9.
Positive allosteric modulator pEC50 values and antagonist pIC50 values for each compound were then determined. […] The points of modification and the alternate reagents, concentrations or equipment employed in these examples were: ^1200 μg/ml hygromycin B; ^2G418 not added; ^3CELLBANKER 1; ^410E6; ^5 40 μl; ^6 1 in 99; ^7 20 μl; ^8FDSS6000 (Hamamatsu Photonics); ^9(480Ex, 540Em); ^10Spotfire (TIBCO).

Sequence of mAChR M1 (P11229 whole entry, looked up): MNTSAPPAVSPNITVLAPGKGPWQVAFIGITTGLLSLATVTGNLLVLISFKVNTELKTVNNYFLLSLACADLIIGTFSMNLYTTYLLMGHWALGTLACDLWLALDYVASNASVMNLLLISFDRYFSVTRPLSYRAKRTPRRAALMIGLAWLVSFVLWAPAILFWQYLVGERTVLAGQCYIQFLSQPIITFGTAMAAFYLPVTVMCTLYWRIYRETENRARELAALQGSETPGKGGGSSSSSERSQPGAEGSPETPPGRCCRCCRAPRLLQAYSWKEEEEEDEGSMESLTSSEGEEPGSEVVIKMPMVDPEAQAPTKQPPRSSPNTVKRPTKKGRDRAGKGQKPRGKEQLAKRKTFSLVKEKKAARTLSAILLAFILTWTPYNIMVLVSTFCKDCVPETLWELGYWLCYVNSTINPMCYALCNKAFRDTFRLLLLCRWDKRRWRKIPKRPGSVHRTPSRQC

Row | Compound | pEC50 for positive allosteric modulation | EC50 [nM]
1 | O=C(N[C@H]1CCCC[C@@H]1O)c1cn(Cc2ccc(F)cc2F)c2cccnc12 [Example 24, 1-(2,4-Difluorobenzyl)-N-((1S,2S)-2-hydroxycyclohexyl)-1H-pyrrolo[3,2-b]pyridine-3-carboxamide] | 6.5 | –
2 | N#Cc1ccc(Cn2cc(C(=O)N[C@H]3CCCC[C@@H]3O)c3nccc(Cl)c32)cn1 [Example 70, 7-Chloro-1-((6-cyanopyridin-3-yl)methyl)-N-((1S,2S)-2-hydroxycyclohexyl)-1H-pyrrolo[3,2-b]pyridine-3-carboxamide] | – | 100
3 | O=C(N[C@H]1CCCC[C@@H]1O)c1cn(Cc2ccc(C(F)(F)F)cc2)c2cccnc12 [Example 90, N-((1S,2S)-2-hydroxycyclohexyl)-1-(4-(trifluoromethyl)benzyl)-1H-pyrrolo[3,2-b]pyridine-3-carboxamide] | 6.6 | –
4 | Cc1nc(Cn2cc(C(=O)N[C@H]3CCCC[C@@H]3O)c3ncccc32)cs1 [Example 7, N-((1S,2S)-2-Hydroxycyclohexyl)-1-((2-methylthiazol-4-yl)methyl)-1H-pyrrolo[3,2-b]pyridine-3-carboxamide] | 5.9 | –
5 | CN1CCC[C@@H](NC(=O)c2cn(Cc3ccc(-n4cccn4)cc3)c3cccnc23)C1 [Example 55, (R)-1-(4-(1H-Pyrazol-1-yl)benzyl)-N-(1-methylpiperidin-3-yl)-1H-pyrrolo[3,2-b]pyridine-3-carboxamide] | 6.7 | –
6 | O=C(N[C@H]1CCCC[C@@H]1O)c1cn(Cc2ccc(F)cc2)c2ccc(Cl)nc12 [Example 39, 5-Chloro-1-(4-fluorobenzyl)-N-((1S,2S)-2-hydroxycyclohexyl)-1H-pyrrolo[3,2-b]pyridine-3-carboxamide] | 6.0 | –
7 | COc1ccc(Cn2cc(C(=O)N[C@H]3CCCC[C@@H]3O)c3nccc(C)c32)cn1 [Example 67, N-((1S,2S)-2-Hydroxycyclohexyl)-1-((6-methoxypyridin-3-yl)methyl)-7-methyl-1H-pyrrolo[3,2-b]pyridine-3-carboxamide] | 7.5 | –
8 | O=C(N[C@@H]1CCOC[C@H]1O)c1cn(Cc2ccc(F)cc2)c2c(Cl)ccnc12 [Example 89, 7-Chloro-1-(4-fluorobenzyl)-N-((3S,4R)-3-hydroxytetrahydro-2H-pyran-4-yl)-1H-pyrrolo[3,2-b]pyridine-3-carboxamide] | 6.6 | –
9 | Cc1csc(Cn2cc(C(=O)N[C@H]3CCCC[C@@H]3O)c3nccc(Cl)c32)n1 [Example 74, 7-Chloro-N-((1S,2S)-2-hydroxycyclohexyl)-1-((4-methylthiazol-2-yl)methyl)-1H-pyrrolo[3,2-b]pyridine-3-carboxamide] | 6.7 | –
10 | O=C(N[C@H]1CCCC[C@@H]1O)c1cn(Cc2ccncc2)c2c(Cl)ccnc12 [Example 79, 7-Chloro-N-((1S,2S)-2-hydroxycyclohexyl)-1-(pyridin-4-ylmethyl)-1H-pyrrolo[3,2-b]pyridine-3-carboxamide] | 7.4 | –
11 | Cc1ccnc2c(C(=O)N[C@H]3CCCC[C@@H]3O)cn(Cc3ccc(Cl)cc3)c12 [Example 60, 1-(4-Chlorobenzyl)-N-((1S,2S)-2-hydroxycyclohexyl)-7-methyl-1H-pyrrolo[3,2-b]pyridine-3-carboxamide] | 7.8 | –
12 | Cc1ccc(Cn2cc(C(=O)N[C@H]3CCCC[C@@H]3O)c3nccc(Cl)c32)nc1 [Example 61, 7-Chloro-N-((1S,2S)-2-hydroxycyclohexyl)-1-((5-methylpyridin-2-yl)methyl)-1H-pyrrolo[3,2-b]pyridine-3-carboxamide] | 7.0 | –
13 | COc1ccc(Cn2cc(C(=O)N[C@H]3CCCC[C@@H]3O)c3nccc(Cl)c32)cn1 [Example 68, 7-Chloro-N-((1S,2S)-2-hydroxycyclohexyl)-1-((6-methoxypyridin-3-yl)methyl)-1H-pyrrolo[3,2-b]pyridine-3-carboxamide] | 7.7 | –
14 | Cc1ccc(Cn2cc(C(=O)N[C@H]3CCCC[C@@H]3O)c3ncccc32)cc1 [Example 1, N-((1S,2S)-2-hydroxycyclohexyl)-1-(4-methylbenzyl)-1H-pyrrolo[3,2-b]pyridine-3-carboxamide] | 7.0 | –
15 | O=C(N[C@@H]1CCCNC1)c1cn(Cc2ccc(-n3cccn3)cc2)c2cccnc12 [Example 53, (R)-1-(4-(1H-Pyrazol-1-yl)benzyl)-N-(piperidin-3-yl)-1H-pyrrolo[3,2-b]pyridine-3-carboxamide] | 6.2 | –
16 | O=C(N[C@@H]1CCOC[C@H]1O)c1cn(Cc2cccc(F)c2)c2c(Cl)ccnc12 (single isomer, unassigned) [Example 86, 7-Chloro-1-(3-fluorobenzyl)-N-(trans-3-hydroxytetrahydro-2H-pyran-4-yl)-1H-pyrrolo[3,2-b]pyridine-3-carboxamide] | – | 25.1
17 | Cc1ccnc2c(C(=O)N[C@H]3CCCC[C@@H]3O)cn(Cc3cc(F)ccc3F)c12 [Example 98, 1-(2,5-difluorobenzyl)-N-((1S,2S)-2-hydroxycyclohexyl)-7-methyl-1H-pyrrolo[3,2-b]pyridine-3-carboxamide] | 7.0 | –
18 | COc1cccc(Cn2cc(C(=O)N[C@H]3CCCC[C@@H]3O)c3ncccc32)c1F [Example 102, 1-(2-fluoro-3-methoxybenzyl)-N-((1S,2S)-2-hydroxycyclohexyl)-1H-pyrrolo[3,2-b]pyridine-3-carboxamide] | 6.4 | –
19 | O=C(N[C@H]1CCCNC1)c1cn(Cc2ccc(-n3cccn3)cc2)c2cccnc12 [Example 52, (S)-1-(4-(1H-Pyrazol-1-yl)benzyl)-N-(piperidin-3-yl)-1H-pyrrolo[3,2-b]pyridine-3-carboxamide] | 6.7 | –
20 | Cc1ccc(Cn2cc(C(=O)N[C@H]3CCCC[C@@H]3O)c3ncccc32)c(F)c1 [Example 97, 1-(2-fluoro-4-methylbenzyl)-N-((1S,2S)-2-hydroxycyclohexyl)-1H-pyrrolo[3,2-b]pyridine-3-carboxamide] | 6.9 | –
21 | CN1CCC(NC(=O)c2cn(Cc3ccc(F)cc3)c3cccnc23)CC1 [Example 31, 1-(4-Fluorobenzyl)-N-(1-methylpiperidin-4-yl)-1H-pyrrolo[3,2-b]pyridine-3-carboxamide] | 6.5 | –
22 | Cc1cc(Cn2cc(C(=O)N[C@H]3CCCC[C@@H]3O)c3nccc(Cl)c32)ccn1 [Example 78, 7-Chloro-N-((1S,2S)-2-hydroxycyclohexyl)-1-((2-methylpyridin-4-yl)methyl)-1H-pyrrolo[3,2-b]pyridine-3-carboxamide] | 7.8 | –
23 | Cc1ccnc2c(C(=O)N[C@H]3CCCC[C@@H]3O)cn(Cc3ccc(OC(F)(F)F)cc3)c12 [Example 100, N-((1S,2S)-2-hydroxycyclohexyl)-7-methyl-1-(4-(trifluoromethoxy)benzyl)-1H-pyrrolo[3,2-b]pyridine-3-carboxamide] | 6.8 | –
24 | CN1CCC[C@H](NC(=O)c2cn(Cc3ccc(-n4cccn4)cc3)c3cccnc23)C1 [Example 54, (S)-1-(4-(1H-Pyrazol-1-yl)benzyl)-N-(1-methylpiperidin-3-yl)-1H-pyrrolo[3,2-b]pyridine-3-carboxamide] | 7.5 | –
25 | O=C(N[C@H]1CCCC[C@@H]1O)c1cn(Cc2ccc(F)cc2)c2c(Cl)ccnc12 [Example 14, 7-Chloro-1-(4-fluorobenzyl)-N-((1S,2S)-2-hydroxycyclohexyl)-1H-pyrrolo[3,2-b]pyridine-3-carboxamide] | 7.3 | –
26 | COc1ccc2c(n1)c(C(=O)N[C@H]1CCCC[C@@H]1O)cn2Cc1ccc(F)cc1 [Example 38, 1-(4-Fluorobenzyl)-N-((1S,2S)-2-hydroxycyclohexyl)-5-methoxy-1H-pyrrolo[3,2-b]pyridine-3-carboxamide] | 5.8 | –
